Experimental data: patent EP0816362A1, “THIAZOLE DERIVATIVES” (TAISHO PHARMACEUTICAL CO. LTD, priority 1995, dated 1996)

target: T1, human D4.2 receptor (Homo sapiens, UniProt P21917, DEL265-296); assay: Dopamine D4 receptor binding experiment ([3H]-spiperone); conditions: CHO cell membranes expressing human D4.2 receptor, [3H]-spiperone (0.5 nM), 27°C, 2 hours
T1 sequence (P21917 with tags, fused parts or gaps DEL265-296): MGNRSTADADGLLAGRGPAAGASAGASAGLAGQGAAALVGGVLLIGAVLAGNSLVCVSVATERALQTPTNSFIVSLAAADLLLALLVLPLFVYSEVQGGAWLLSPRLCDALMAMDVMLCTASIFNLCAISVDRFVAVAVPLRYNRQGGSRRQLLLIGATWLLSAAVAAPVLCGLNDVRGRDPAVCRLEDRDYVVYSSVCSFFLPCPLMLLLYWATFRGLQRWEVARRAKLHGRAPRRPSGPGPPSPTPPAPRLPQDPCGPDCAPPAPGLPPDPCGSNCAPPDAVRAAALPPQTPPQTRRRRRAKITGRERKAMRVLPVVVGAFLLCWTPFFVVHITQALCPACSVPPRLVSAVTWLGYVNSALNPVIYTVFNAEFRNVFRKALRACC
Protocol: As a receptor preparation, Chinese hamster ovary (CHO) cell membranes where human D4.2 receptor was expressed were used.
As [^3H]-labeled ligand, [^3H]-spiperone was used.
Human D4.2 receptor binding test: CHO cell membranes where human D4.2 receptor was expressed, [^3H]-spiperone (0.5 nM) and a test drug were reacted at 27°C for 2 hours in 50 mM Tris-HCl buffer, pH 7.4 containing 5 mM EDTA, 1.5 mM calcium chloride, 5 mM potassium chloride and 120 mM sodium chloride.
After the reaction, the sample was filtered under suction through a glass filter (GF/B), and the radioactivity of the filter paper was determined in a liquid scintillation spectrometer.
The binding of [^3H]-spiperone in the presence of 10 µM haloperidol was assumed to be non-specific binding, and the difference between the total binding and the non-specific binding was assumed to be specific binding.

Row | Compound | IC50 [nM]
1 | Nc1nc(-c2ccc(F)cc2)c(C2CCN(CCCC(c3ccc(F)cc3)c3ccc(F)cc3)C2)s1 (racemic) [Compound B-19] | 55.9
2 | Nc1nc(-c2ccc(F)cc2)c(C2CCN(CCC=C(c3ccc(F)cc3)c3ccc(F)cc3)C2)s1 (racemic) [Compound C-03] | 29.2
3 | Nc1nc(-c2ccc(F)cc2)c(C2CCN(CCCC(=O)c3ccccc3)C2)s1 (racemic) [Compound D-06] | 38.5
4 | Nc1nc(-c2cccc(F)c2)c(C2CCN(CCCC(=O)c3ccc(F)cc3)C2)s1 (racemic) [Compound D-09] | 32
5 | CNc1nc(-c2ccc(F)cc2)c(C2CCN(CCCC(=O)c3ccc(F)cc3)C2)s1 (racemic) [Compound D-13] | 12.6
6 | Cc1nc(-c2ccc(F)cc2)c(C2CCN(CCCC(=O)c3ccc(F)cc3)C2)s1 (racemic) [Compound D-15] | 4.13
7 | Nc1nc(-c2ccc(F)cc2)c(C2CCN(CCCc3noc4cc(F)ccc34)C2)s1 (single isomer, unassigned) [Compound F-07] | 11.8
8 | Nc1nc(-c2ccc(F)cc2)c(C2CCN(CCCC(=O)c3ccc(F)cc3)C2)s1 (single isomer, unassigned; (+)) [Compound F-05, (+)-2-amino-4-(4-fluorophenyl)-5-[1-[4-(4-fluorophenyl)-4-oxobutyl]pyrrolidin-3-yl]thiazole] | 6.58
9 | Nc1nc(-c2ccc(F)cc2)c(C2CCN(CCC=Cc3ccc(F)cc3)C2)s1 (centres unmarked) [Compound C-02] | 81.1
10 | Nc1nc(-c2ccc(F)cc2)c(C2CCN(CCCC(=O)c3ccc(F)cc3)C2)s1 [Compound D-02, 2-amino-4-(4-fluorophenyl)-5-[1-[4-(4-fluorophenyl)-4-oxobutyl]pyrrolidin-3-yl]thiazole] | 6.58
11 | Nc1nc(-c2ccc(F)cc2)c(C2CCN(CCCc3noc4cc(F)ccc34)C2)s1 (centres unmarked) [Compound E-02, 2-amino-4-(4-fluorophenyl)-5-[1-[3-(6-fluoro-1,2-benzisoxazol-3-yl)propyl]pyrrolidin-3-yl]thiazole] | 10.5
12 | Nc1nc(-c2ccc(F)cc2)c(C2CCN(CCCCc3noc4cc(F)ccc34)C2)s1 (centres unmarked) [Compound E-06] | 97.7
13 | Nc1nc(-c2ccc(F)cc2)c(C2CCN(CCCc3nsc4ccccc34)C2)s1 (centres unmarked) [Compound E-10] | 13.9
14 | Nc1nc(-c2ccc(F)cc2)c(C2CCN(CCCc3nsc4cc(F)ccc34)C2)s1 (centres unmarked) [Compound E-11, 2-amino-4-(4-fluorophenyl)-5-[1-[3-(6-fluoro-1,2-benzisothiazol-3-yl)propyl]pyrrolidin-3-yl]thiazole] | 7.22
15 | Nc1nc(-c2ccc(F)cc2)c(C2CCN(CCCN3C(=O)CCc4ccccc43)C2)s1 (centres unmarked) [Compound H-02] | 81.1
16 | Nc1nc(-c2ccc(F)cc2)c(C2CCN(CCCn3c(=O)ccc4cc(F)ccc43)C2)s1 (centres unmarked) [Compound H-03] | 61.4
17 | Nc1nc(-c2ccc(F)cc2)c(C2CCN(CCCN3C(=O)CCc4cc(F)ccc43)C2)s1 (centres unmarked) [Compound H-04] | 46.4
18 | Nc1nc(-c2ccc(F)cc2)c(C2CCN(CCCN3C(=O)Cc4ccccc43)C2)s1 (centres unmarked) [Compound H-07] | 89
19 | Nc1nc(-c2ccc(F)cc2)c(C2CCN(CCCN3C(=O)Cc4cc(F)ccc43)C2)s1 (centres unmarked) [Compound H-08] | 46.4
20 | Nc1nc(-c2ccc(F)cc2)c(CCN2CCC(C(=O)c3ccc(F)cc3)CC2)s1 [Compound K-01, 2-amino-4-(4-fluorophenyl)-5-[2-[4-(4-fluorobenzoyl)piperidin-1-yl]ethyl]thiazole] | 7.92

Row | Compound | IC50 [nM]
21 | Nc1nc(-c2ccc(F)cc2)c(CCN2CCC(Cc3ccccc3)CC2)s1 [Compound K-04] | 46.4
22 | Nc1nc(-c2ccc(F)cc2)c(CCN2CCC(C(=O)c3ccc(Cl)cc3)CC2)s1 [Compound K-08] | 29.2
23 | Nc1nc(-c2ccc(F)cc2)c(CCN2CCC(C(=O)c3ccccc3)CC2)s1 [Compound K-09] | 42.3
24 | Nc1nc(-c2ccccc2)c(CCN2CCC(C(=O)c3ccc(F)cc3)CC2)s1 [Compound K-10] | 8.7
25 | Nc1nc(-c2ccc(F)cc2)c(CCN2CCC(C(=O)c3ccc(Br)cc3)CC2)s1 [Compound K-15] | 35.1
26 | Cc1ccc(C(=O)C2CCN(CCc3sc(N)nc3-c3ccc(F)cc3)CC2)cc1 [Compound K-16] | 9.55
27 | C=C(c1ccc(F)cc1)C1CCN(CCc2sc(N)nc2-c2ccc(F)cc2)CC1 [Compound K-18] | 20.1
28 | Cc1nc(-c2ccc(F)cc2)c(CCN2CCC(C(=O)c3ccc(F)cc3)CC2)s1 [Compound K-19] | 8.7
29 | Cc1nc(-c2ccc(F)cc2)c(CCN2CCC(C(=O)c3ccc(Cl)cc3)CC2)s1 [Compound K-20] | 5.46
30 | Cc1nc(-c2ccc(F)cc2)c(CCN2CCC(C(=O)c3ccc(Br)cc3)CC2)s1 [Compound K-21] | 11.5
31 | COc1ccc(C(=O)C2CCN(CCc3sc(C)nc3-c3ccc(F)cc3)CC2)cc1 [Compound K-22] | 38.5
32 | Cc1nc(-c2ccc(F)cc2)c(CCN2CCC(C(=O)c3ccc(F)cc3F)CC2)s1 [Compound K-23] | 11.5
33 | Cc1nc(-c2ccc(F)cc2)c(CCN2CCC(C(=O)c3ccccc3)CC2)s1 [Compound K-24] | 5.99
34 | Cc1ccc(C(=O)C2CCN(CCc3sc(C)nc3-c3ccc(F)cc3)CC2)cc1 [Compound K-25] | 5.46
35 | Cc1nc(-c2ccc(Cl)cc2)c(CCN2CCC(C(=O)c3ccc(F)cc3)CC2)s1 [Compound K-26] | 4.53
36 | Cc1nc(-c2ccc(Br)cc2)c(CCN2CCC(C(=O)c3ccc(F)cc3)CC2)s1 [Compound K-27] | 4.98
37 | COc1ccc(-c2nc(C)sc2CCN2CCC(C(=O)c3ccc(F)cc3)CC2)cc1 [Compound K-28] | 1.63
38 | Cc1ccc(-c2nc(C)sc2CCN2CCC(C(=O)c3ccc(F)cc3)CC2)cc1 [Compound K-29] | 2.36
39 | Cc1nc(-c2ccccc2)c(CCN2CCC(C(=O)c3ccc(F)cc3)CC2)s1 [Compound K-30] | 2.15

same assay, conditions: inhibition of [3H]-spiperone binding, human D4.2 receptor

Row | Compound | IC50 [nM]
40 | COc1ccc(-c2nc(C)sc2CCN2CCC(C(=O)c3ccc(F)cc3)CC2)cc1Br [Compound K-31] | 0.705
41 | C=C(c1ccc(F)cc1)C1CCN(CCc2sc(C)nc2-c2ccc(F)cc2)CC1 [Compound K-32] | 12.6
42 | O=C(c1ccc(F)cc1)C1CCN(CCc2scnc2-c2ccc(F)cc2)CC1 [Compound K-33] | 2.36
43 | O=C(c1ccccc1)C1CCN(CCc2scnc2-c2ccc(F)cc2)CC1 [Compound K-34] | 20.1
44 | O=C(c1ccc(F)cc1)C1CCN(CCc2sc(-c3ccccc3)nc2-c2ccc(F)cc2)CC1 [Compound K-35] | 32
45 | CNc1nc(-c2ccc(F)cc2)c(CCN2CCC(C(=O)c3ccc(F)cc3)CC2)s1 [Compound K-36] | 3.43
46 | Nc1nc(-c2ccc(F)cc2)c(CCN2CCC(CC(=O)c3ccc(F)cc3)C2)s1 (centres unmarked) [Compound K-37] | 10.5

More lines, now with the values ahead:

Row | IC50 [nM] | Compound
47 | 2.85 | Nc1nc(-c2ccc(F)cc2)c(CCN2CCC(=Cc3ccc(F)cc3)CC2)s1 [Compound L-01]
48 | 38.5 | Nc1nc(-c2ccc(F)cc2)c(CCCN2CCC(=Cc3ccc(F)cc3)CC2)s1 [Compound L-02]
49 | 22.1 | Nc1nc(-c2ccc(Cl)cc2)c(CCN2CCC(=Cc3ccc(F)cc3)CC2)s1 [Compound L-03]
50 | 13.9 | Nc1nc(-c2ccc(Br)cc2)c(CCN2CCC(=Cc3ccc(F)cc3)CC2)s1 [Compound L-04]
51 | 18.3 | COc1ccc(-c2nc(N)sc2CCN2CCC(=Cc3ccc(F)cc3)CC2)cc1 [Compound L-05]
52 | 4.13 | Cc1ccc(-c2nc(N)sc2CCN2CCC(=Cc3ccc(F)cc3)CC2)cc1 [Compound L-06]
53 | 22.1 | Nc1nc(-c2ccccc2)c(CCN2CCC(=Cc3ccc(F)cc3)CC2)s1 [Compound L-07]
54 | 73.9 | Nc1nc(-c2ccc(F)cc2)c(CCN2CCC(=Cc3ccc(Cl)cc3)CC2)s1 [Compound L-08]
55 | 29.2 | COc1ccc(C=C2CCN(CCc3sc(N)nc3-c3ccc(F)cc3)CC2)cc1 [Compound L-10]
56 | 2.85 | Nc1nc(-c2ccc(F)cc2)c(CCN2CCC(=Cc3cccc(F)c3)CC2)s1 [Compound L-11]
57 | 2.36 | Nc1nc(-c2ccc(F)cc2)c(CCN2CCC(=Cc3ccccc3F)CC2)s1 [Compound L-12]
58 | 24.2 | Nc1nc(-c2ccc(F)cc2)c(CCN2CCC(=Cc3cccc(C(F)(F)F)c3)CC2)s1 [Compound L-13]
59 | 3.76 | Nc1nc(-c2ccc(F)cc2)c(CCN2CCC(=Cc3ccccc3)CC2)s1 [Compound L-14]
60 | 7.92 | CC(=C1CCN(CCc2sc(N)nc2-c2ccc(F)cc2)CC1)c1ccc(F)cc1 [Compound L-15]
61 | 12.6 | Cc1nc(-c2ccc(F)cc2)c(CCN2CCC(=Cc3ccc(F)cc3)CC2)s1 [Compound L-17]
62 | 9.55 | Cc1nc(-c2ccc(Cl)cc2)c(CCN2CCC(=Cc3ccc(F)cc3)CC2)s1 [Compound L-18]
63 | 16.7 | Cc1nc(-c2ccc(Br)cc2)c(CCN2CCC(=Cc3ccc(F)cc3)CC2)s1 [Compound L-19]
64 | 7.22 | COc1ccc(-c2nc(C)sc2CCN2CCC(=Cc3ccc(F)cc3)CC2)cc1 [Compound L-20]
65 | 2.6 | Cc1ccc(-c2nc(C)sc2CCN2CCC(=Cc3ccc(F)cc3)CC2)cc1 [Compound L-21]
